Assay results taken from patent US9034882B2, “Inhibitors of human immunodeficiency virus replication” (priority 2012, dated 2015).
Like-named read-outs stand apart in the source and are kept apart here.

System: recombinant NL-Rluc virus
Experiment: Inhibition of HIV replication (NL-RLuc luciferase reporter virus in MT-2 cells)
Assay type: cell-based
[1] = Human immunodeficiency virus 1, MT2, 120 h, read-out: Activity
[2] = Human immunodeficiency virus 1, MT2, 120 h, read-out: EC50 μM
[3] = read-out: Activity, MT-2 cells infected with NL-RLuc virus, 5 days of incubation, luciferase readout, serum condition not given

SMILES	EC50 [1] [µM]	EC50 [2] [µM]	EC50 [3] [µM]
Cc1nc2cc(-c3cccc(-c4ccccc4)c3)nn2c(N2CCOC(C)(C)C2)c1[C@H](OC(C)(C)C)C(=O)O [Example 49, (S)-2-(2-([1,1′-Biphenyl]-3-yl)-7-(2,2-dimethylmorpholino)-5-methylpyrazolo[1,5-a]pyrimidin-6-yl)-2-(tert-butoxy)acetic acid]	0.1 to 1	–	–
Cc1nc2cc(-c3ccccc3)nn2c(N2CCC(C(N)=O)CC2)c1C(OC(C)(C)C)C(=O)O (centres unmarked) [Example 24]	> 1	–	–
Cc1nc2nc(-c3cccc(-c4ccccc4)c3)nn2c(N2CCC(C)(C)CC2)c1[C@H](OC(C)(C)C)C(=O)O [Example 42, (S)-2-(2-([1,1′-Biphenyl]-3-yl)-7-(4,4-dimethylpiperidin-1-yl)-5-methyl-[1,2,4]triazolo[1,5-a]pyrimidin-6-yl)-2-(tert-butoxy)acetic acid]	< 0.1	0.05	–
Cc1nc2cc(-c3cccc(-c4ccccc4F)c3)nn2c(N2CCC3(C)CC3C2)c1[C@H](OC(C)(C)C)C(=O)O (stereo partly drawn) [Example 64, (2S)-2-(tert-Butoxy)-2-(2-(2′-fluoro-[1,1′-biphenyl]-3-yl)-5-methyl-7-(6-methyl-3-azabicyclo[4.1.0]heptan-3-yl)pyrazolo[1,5-a]pyrimidin-6-yl)acetic acid]	–	–	0.1 to 1
Cc1nc2cc(-c3cccc(-c4ccccc4F)c3)nn2c(N2CCC3(C)CC3C2)c1[C@H](OC(C)(C)C)C(=O)O (stereo partly drawn) [Example 63, (2S)-2-(tert-Butoxy)-2-(2-(2′-fluoro-[1,1′-biphenyl]-3-yl)-5-methyl-7-(6-methyl-3-azabicyclo[4.1.0]heptan-3-yl)pyrazolo[1,5-a]pyrimidin-6-yl)acetic acid]	0.1 to 1	–	–
Cc1nc2cc(-c3ccccc3)nn2c(N2CCC(C(F)(F)F)CC2)c1C(OC(C)(C)C)C(=O)O (centres unmarked) [Example 23]	> 1	–	–
Cc1nc2cc(-c3cccc(-c4ccccc4)c3)nn2c(N2[C@@H]3CCC[C@H]2CC3)c1[C@H](OC(C)(C)C)C(=O)O [Example 43, (S)-2-(2-([1,1′-Biphenyl]-3-yl)-7-((1R,5S)-8-azabicyclo[3.2.1]octan-8-yl)-5-methylpyrazolo[1,5-a]pyrimidin-6-yl)-2-(tert-butoxy)acetic acid]	0.1 to 1	0.78	–
Cc1nc2cc(-c3cccc(-c4ccccc4)c3)nn2c(N2CCOCC2)c1[C@H](OC(C)(C)C)C(=O)O [Example 44, (S)-2-(2-([1,1′-Biphenyl]-3-yl)-5-methyl-7-morpholinopyrazolo[1,5-a]pyrimidin-6-yl)-2-(tert-butoxy)acetic acid]	0.1 to 1	–	–
Cc1nc2cc(-c3cc(-c4ccccc4)ccn3)nn2c(N2CCC(C)(C)CC2)c1[C@H](OC(C)(C)C)C(=O)O [Example 65, (S)-2-(tert-Butoxy)-2-(7-(4,4-dimethylpiperidin-1-yl)-5-methyl-2-(4-phenylpyridin-2-yl)pyrazolo[1,5-a]pyrimidin-6-yl)acetic acid]	0.1 to 1	–	–
Cc1nc2cc(-c3ccccc3)nn2c(N2CCCCC2)c1C(OC(C)(C)C)C(=O)O (centres unmarked) [Example 2, 2-(tert-butoxy)-2-(7-(lpiperidin-1-yl)-5-methyl-2-phenylpyrazolo[1,5a]pyrimidin-6-yl)acetic acid]	> 1	5	–
Cc1nc2cc(-c3cccc(-c4ccccc4)n3)nn2c(N2CCC(C)(C)CC2)c1[C@H](OC(C)(C)C)C(=O)O [Example 67, (S)-2-(tert-Butoxy)-2-(7-(4,4-dimethylpiperidin-1-yl)-5-methyl-2-(6-phenylpyridin-2-yl)pyrazolo[1,5-a]pyrimidin-6-yl)acetic acid]	0.1 to 1	–	–
Cc1nc2cc(-c3cccc(-c4ccccc4)c3)nn2c(N2[C@@H]3CC[C@H]2COC3)c1[C@H](OC(C)(C)C)C(=O)O [Example 45, (S)-2-(2-([1,1′-Biphenyl]-3-yl)-7-((1R,5S)-3-oxa-8-azabicyclo[3.2.1]octan-8-yl)-5-methylpyrazolo[1,5-a]pyrimidin-6-yl)-2-(tert-butoxy)acetic acid]	> 1	3.14	–
Cc1ccccc1-c1cccc(-c2cc3nc(C)c([C@H](OC(C)(C)C)C(=O)O)c(N4CCC(C)(C)CC4)n3n2)c1 [Example 58, (S)-2-(tert-Butoxy)-2-(7-(4,4-dimethylpiperidin-1-yl)-5-methyl-2-(2′-methyl-[1,1′-biphenyl]-3-yl)pyrazolo[1,5-a]pyrimidin-6-yl)acetic acid]	< 0.1	–	–
Cc1nc2cc(-c3ccccc3)nn2c(N2CCCC2C(C)C)c1C(OC(C)(C)C)C(=O)O (centres unmarked) [Example 25]	> 1	–	–
Cc1nc2cc(-c3cccc(-c4ccc(F)cc4)c3)nn2c(N2CCC3(CC2)CC3)c1[C@H](OC(C)(C)C)C(=O)O [Example 54, (S)-2-(tert-Butoxy)-2-(2-(4′-fluoro-[1,1′-biphenyl]-3-yl)-5-methyl-7-(6-azaspiro[2.5]octan-6-yl)pyrazolo[1,5-a]pyrimidin-6-yl)acetic acid]	0.1 to 1	–	–
Cc1nc2cc(-c3ccccc3)nn2c(N2CCC(C(C)(C)C)CC2)c1C(OC(C)(C)C)C(=O)O (centres unmarked) [Example 17]	> 1	–	–
Cc1nc2cc(-c3cccc(-c4ccccc4)c3)nn2c(N2CCC3(C)CC3C2)c1[C@H](OC(C)(C)C)C(=O)O (stereo partly drawn) [Example 62, (2S)-2-(2-([1,1′-Biphenyl]-3-yl)-5-methyl-7-(6-methyl-3-azabicyclo[4.1.0]heptan-3-yl)pyrazolo[1,5-a]pyrimidin-6-yl)-2-(tert-butoxy)acetic acid]	–	0.42	0.1 to 1
Cc1nc2cc(-c3cccc(OCc4ccccc4)n3)nn2c(N2CCC(C)(C)CC2)c1[C@H](OC(C)(C)C)C(=O)O [Example 69, (S)-2-(2-(6-(Benzyloxy)pyridin-2-yl)-7-(4,4-dimethylpiperidin-1-yl)-5-methylpyrazolo[1,5-a]pyrimidin-6-yl)-2-(tert-butoxy)acetic acid]	0.1 to 1	0.19	–
Cc1nc2cc(-c3cccc(-c4cccc(F)c4)c3)nn2c(N2CCC(C)(C)CC2)c1[C@H](OC(C)(C)C)C(=O)O [Example 55, (S)-2-(tert-Butoxy)-2-(7-(4,4-dimethylpiperidin-1-yl)-2-(3′-fluoro-[1,1′-biphenyl]-3-yl)-5-methylpyrazolo[1,5-a]pyrimidin-6-yl)acetic acid]	0.1 to 1	–	–
Cc1nc2cc(-c3ccccc3)nn2c(N2CCC(F)(F)CC2)c1C(OC(C)(C)C)C(=O)O (centres unmarked) [Example 21]	> 1	–	–
Cc1nc2cc(-c3ccccc3)nn2c(N2CCCNCC2)c1C(OC(C)(C)C)C(=O)O (centres unmarked) [Example 4, 2(7-(1,4-diazepan-1-yl)-5-methyl-2-phenylpyrazolo[1,5a]pyrimidin-6-yl)-2-(tert-butoxy)-acetic acid]	> 1	–	–
Cc1nc2cc(-c3ccccc3)nn2c(N2CCC(C(C)C)CC2)c1C(OC(C)(C)C)C(=O)O (centres unmarked) [Example 16]	0.1 to 1	0.77	–
Cc1nc2cc(-c3cccc(-c4ccccc4)c3)nn2c(N2CCC3(C)CC3C2)c1[C@H](OC(C)(C)C)C(=O)O (stereo partly drawn) [Example 61, (2S)-2-(2-([1,1′-Biphenyl]-3-yl)-5-methyl-7-(6-methyl-3-azabicyclo[4.1.0]heptan-3-yl)pyrazolo[1,5-a]pyrimidin-6-yl)-2-(tert-butoxy)acetic acid]	0.1 to 1	–	–
COC1CCN(c2c(C(OC(C)(C)C)C(=O)O)c(C)nc3cc(-c4ccccc4)nn23)CC1 (centres unmarked) [Example 11]	> 1	–	–
Cc1nc2cc(-c3ccccc3)nn2c(N2C(C)COCC2C)c1C(OC(C)(C)C)C(=O)O (centres unmarked) [Example 9]	> 1	–	–
